Source: BindingDB's records for patent US11547697 (Millennium Pharmaceuticals, 2023)

What was measured:
Assay in all cases: Inhibition Assay of PI3K
[1] = target: Phosphatidylinositol 4,5-bisphosphate 3-kinase catalytic subunit gamma isoform (Homo sapiens, UniProt P48736)
[2] = target: T1, Phosphatidylinositol 4,5-bisphosphate 3-kinase catalytic subunit delta isoform (Homo sapiens, UniProt O00329)
T1 sequence (O00329 whole entry): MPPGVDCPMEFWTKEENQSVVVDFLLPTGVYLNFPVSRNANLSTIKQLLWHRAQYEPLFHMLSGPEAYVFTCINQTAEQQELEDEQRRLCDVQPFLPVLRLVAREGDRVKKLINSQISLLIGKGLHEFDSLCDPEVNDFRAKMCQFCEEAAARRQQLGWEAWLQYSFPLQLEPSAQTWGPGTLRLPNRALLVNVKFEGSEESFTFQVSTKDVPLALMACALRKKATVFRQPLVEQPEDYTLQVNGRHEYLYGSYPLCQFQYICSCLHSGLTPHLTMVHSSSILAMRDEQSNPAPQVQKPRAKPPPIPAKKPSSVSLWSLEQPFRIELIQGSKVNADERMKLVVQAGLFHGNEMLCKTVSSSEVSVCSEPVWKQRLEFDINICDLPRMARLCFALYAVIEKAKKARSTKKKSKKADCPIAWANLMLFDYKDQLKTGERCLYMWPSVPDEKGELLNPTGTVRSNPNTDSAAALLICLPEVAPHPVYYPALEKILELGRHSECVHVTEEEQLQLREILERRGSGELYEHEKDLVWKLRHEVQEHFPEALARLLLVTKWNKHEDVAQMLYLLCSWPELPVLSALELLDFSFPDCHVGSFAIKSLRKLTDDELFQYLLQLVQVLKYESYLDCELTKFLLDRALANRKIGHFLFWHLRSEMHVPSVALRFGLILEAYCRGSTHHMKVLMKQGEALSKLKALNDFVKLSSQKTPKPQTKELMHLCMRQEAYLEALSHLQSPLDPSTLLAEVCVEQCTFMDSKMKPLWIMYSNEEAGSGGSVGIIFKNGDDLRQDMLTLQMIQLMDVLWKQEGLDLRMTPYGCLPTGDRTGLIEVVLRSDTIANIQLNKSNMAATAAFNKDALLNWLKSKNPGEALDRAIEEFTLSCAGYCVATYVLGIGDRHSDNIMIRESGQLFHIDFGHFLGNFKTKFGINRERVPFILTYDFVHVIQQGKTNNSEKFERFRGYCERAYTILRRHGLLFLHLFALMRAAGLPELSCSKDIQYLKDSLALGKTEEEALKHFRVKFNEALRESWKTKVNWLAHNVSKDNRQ

[3] = target: Phosphatidylinositol 4,5-bisphosphate 3-kinase catalytic subunit beta isoform (Homo sapiens, UniProt P42338)
Phosphatidylinositol 4,5-bisphosphate 3-kinase catalytic subunit beta isoform, sequence (P42338 whole entry, canonical isoform): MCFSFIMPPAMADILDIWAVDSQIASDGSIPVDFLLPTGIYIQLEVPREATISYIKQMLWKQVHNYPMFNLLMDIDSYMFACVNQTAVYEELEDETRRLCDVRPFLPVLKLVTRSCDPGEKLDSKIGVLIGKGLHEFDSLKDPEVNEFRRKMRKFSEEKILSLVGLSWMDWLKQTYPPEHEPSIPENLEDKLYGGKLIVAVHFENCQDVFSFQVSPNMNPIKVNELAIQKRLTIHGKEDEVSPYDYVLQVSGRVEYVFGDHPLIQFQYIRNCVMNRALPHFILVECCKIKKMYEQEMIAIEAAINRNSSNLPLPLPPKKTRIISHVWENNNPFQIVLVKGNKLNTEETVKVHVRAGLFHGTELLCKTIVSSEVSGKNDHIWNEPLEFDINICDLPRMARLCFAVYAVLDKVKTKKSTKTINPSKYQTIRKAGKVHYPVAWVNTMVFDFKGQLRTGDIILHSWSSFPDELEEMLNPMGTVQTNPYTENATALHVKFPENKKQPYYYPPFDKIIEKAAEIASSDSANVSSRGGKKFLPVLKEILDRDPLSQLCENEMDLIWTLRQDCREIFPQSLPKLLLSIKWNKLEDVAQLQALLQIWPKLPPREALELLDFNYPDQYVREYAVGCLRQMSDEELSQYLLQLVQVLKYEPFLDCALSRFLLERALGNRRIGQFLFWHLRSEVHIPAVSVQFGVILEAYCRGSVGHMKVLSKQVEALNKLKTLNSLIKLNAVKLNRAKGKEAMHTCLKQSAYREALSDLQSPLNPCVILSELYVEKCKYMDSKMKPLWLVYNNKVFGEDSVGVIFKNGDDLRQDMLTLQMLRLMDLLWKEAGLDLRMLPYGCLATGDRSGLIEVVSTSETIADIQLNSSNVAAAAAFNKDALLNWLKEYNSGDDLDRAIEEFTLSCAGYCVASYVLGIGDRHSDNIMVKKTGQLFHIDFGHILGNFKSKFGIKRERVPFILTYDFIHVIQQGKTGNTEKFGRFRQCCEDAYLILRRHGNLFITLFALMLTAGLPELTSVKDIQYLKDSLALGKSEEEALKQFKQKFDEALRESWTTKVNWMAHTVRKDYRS

Phosphatidylinositol 4,5-bisphosphate 3-kinase catalytic subunit gamma isoform, sequence (P48736 whole entry, canonical isoform): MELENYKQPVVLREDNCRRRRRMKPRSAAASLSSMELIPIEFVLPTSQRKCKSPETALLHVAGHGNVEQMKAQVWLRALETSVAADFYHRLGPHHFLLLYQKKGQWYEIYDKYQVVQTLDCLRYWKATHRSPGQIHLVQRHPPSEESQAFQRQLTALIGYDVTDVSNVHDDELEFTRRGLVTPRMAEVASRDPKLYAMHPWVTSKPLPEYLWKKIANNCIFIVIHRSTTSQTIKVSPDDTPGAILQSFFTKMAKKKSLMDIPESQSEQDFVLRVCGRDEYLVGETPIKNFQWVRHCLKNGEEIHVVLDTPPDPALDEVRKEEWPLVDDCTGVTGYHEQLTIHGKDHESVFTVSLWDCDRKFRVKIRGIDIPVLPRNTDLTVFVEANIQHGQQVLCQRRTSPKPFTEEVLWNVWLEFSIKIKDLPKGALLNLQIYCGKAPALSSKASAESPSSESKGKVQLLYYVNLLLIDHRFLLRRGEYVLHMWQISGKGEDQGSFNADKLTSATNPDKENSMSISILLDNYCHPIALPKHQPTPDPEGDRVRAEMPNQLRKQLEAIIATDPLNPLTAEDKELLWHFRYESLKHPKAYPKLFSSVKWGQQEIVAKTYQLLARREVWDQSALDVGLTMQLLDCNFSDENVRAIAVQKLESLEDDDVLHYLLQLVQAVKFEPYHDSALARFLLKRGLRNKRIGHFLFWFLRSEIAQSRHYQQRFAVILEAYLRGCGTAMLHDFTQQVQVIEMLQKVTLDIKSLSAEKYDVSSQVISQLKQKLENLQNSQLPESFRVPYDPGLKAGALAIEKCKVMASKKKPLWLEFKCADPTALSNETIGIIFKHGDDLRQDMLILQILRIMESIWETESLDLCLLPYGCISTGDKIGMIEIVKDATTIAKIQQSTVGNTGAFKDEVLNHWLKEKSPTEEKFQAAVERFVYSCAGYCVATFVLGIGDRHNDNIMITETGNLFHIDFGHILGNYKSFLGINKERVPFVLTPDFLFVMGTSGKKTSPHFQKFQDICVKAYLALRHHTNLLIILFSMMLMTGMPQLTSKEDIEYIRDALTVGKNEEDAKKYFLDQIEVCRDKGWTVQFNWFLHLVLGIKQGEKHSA

Compound	IC50 [1] [µM]	IC50 [2] [µM]	IC50 [3] [µM]
CNC(=O)CN1CCN(c2cnc3ccc(-c4ccc5oc(N)nc5c4)cc3n2)CC1 [US11547697, Compound 120]	> 10	–	–
CN1CCN([C@@H]2CCN(c3cnc4ccc(-c5ccc6oc(N)nc6c5)cc4n3)C2)CC1 [US11547697, Compound 379]	> 10	–	–
CC(=O)N1CCC(n2cnc3ccc(-c4ccc5oc(N)nc5c4)cc3c2=O)CC1 [US11547697, Compound 66]	> 10	> 10	–
CN1CCN(C(=O)c2cnc3ccc(-c4ccc5nc(N)sc5c4)cn23)CC1 [US11547697, Compound 146]	> 10	> 10	–
Nc1nc2cc(-c3ccc4ncc(N5CC(N6CCN(CC7CC7)CC6)C5)nc4c3)ccc2o1 [US11547697, Compound 335]	> 10	–	–
Nc1nc2cc(-c3ccc4ncc(N5CCC(N)CC5)nc4c3)ccc2o1 [US11547697, Compound 168]	> 10	–	–
CN1CCC(n2cnc3ccc(-c4ccc5oc(N)nc5c4)cc3c2=O)CC1 [US11547697, Compound 36]	> 10	–	–
C[C@H]1CN(c2cnc3ccc(-c4ccc5sc(N)nc5c4)cc3n2)CCN1 [US11547697, Compound 307]	> 10	> 10	–
CC1(C)CN(c2cnc3ccc(-c4ccc5oc(N)nc5c4)cc3n2)CCN1 [US11547697, Compound 336]	> 10	–	–
Nc1nc2cc(-c3ccc4ncc(C(=O)NCCN5CCCC5)n4c3)ccc2o1 [US11547697, Compound 296]	> 10	–	–
Nc1nc2cc(-c3ccc4ncc(C(=O)N5CCNCC5)n4c3)ccc2o1 [US11547697, Compound 111]	> 10	> 10	–
Nc1nc2cc(-c3ccc4nnc(-c5cccnc5)n4c3)ccc2o1 [US11547697, Compound 300]	> 10	> 10	–
Cc1cc2oc(N)nc2cc1-c1ccc2ncc(N3CCN[C@@H](C)C3)nc2c1 [US11547697, Compound 351]	> 10	> 10	–
Nc1nc2ccc(-c3ccc4nnc(-c5cccnc5)n4c3)cc2o1 [US11547697, Compound 301]	> 10	> 10	–
CNc1nc2cc(-c3ccc4ncc(C(=O)N5CCOCC5)n4c3)ccc2o1 [US11547697, Compound 406]	> 10	> 10	–
C[C@H]1CN(C2CN(c3cnc4ccc(-c5ccc6oc(N)nc6c5)cc4n3)C2)CCN1 [US11547697, Compound 350]	> 10	–	–
CN1CCC(n2cnc3ccc(-c4cnc(Cl)c(NS(C)(=O)=O)c4)cc3c2=O)CC1 [US11547697, Compound 526]	> 10	–	–
CC(C)n1cnc2ccc(-c3ccc4oc(N)nc4c3)cc2c1=O [US11547697, Compound 206]	–	> 10	> 10
COc1ccc(-c2ccc3ncc(C(=O)N4CCOCC4)n3c2)cc1NS(=O)(=O)c1ccccc1 [US11547697, Compound 455]	–	> 10	> 10
CN1CCN(C(=O)c2cnc3ccc(-c4ccc5sc(N)nc5c4)cn23)CC1 [US11547697, Compound 144]	> 10	> 10	–
Nc1nc2cc(-c3ccc4ncc(C(=O)N5CC[C@H](N6CCOCC6)C5)n4c3)ccc2o1 [US11547697, Compound 465]	–	> 10	> 10
Nc1nc2cc(-c3ccc4ncc(N5CCCCC5)nc4c3)ccc2o1 [US11547697, Compound 175]	–	> 10	> 10
CN1CCN(C(=O)c2cnc3ccc(-c4ccc5oc(N)nc5c4)nn23)CC1 [US11547697, Compound 104]	–	> 10	> 10
CNc1noc2cc(-c3ccc4ncc(C(=O)N5CCOCC5)n4c3)ccc12 [US11547697, Compound 486]	–	> 10	> 10
C[C@@H]1CN(c2cnc3ccc(-c4ccc5oc(N)nc5c4)cc3n2)C[C@H](C)O1 [US11547697, Compound 132]	–	> 10	> 10
O=C(c1cnc2ccc(-c3ccc(Cl)c(NS(=O)(=O)c4ccccc4)c3)cn12)N1CCOCC1 [US11547697, Compound 459]	–	> 10	> 10
Nc1nc2cc(-c3ccc4ncc(C(=O)NC5CCC(O)CC5)n4c3)ccc2o1 (centres undefined) [US11547697, Compound 143]	< 0.1	–	–

Compound	IC50 [1] [µM]	IC50 [2] [µM]	IC50 [3] [µM]
CC1(C)CN(C(=O)c2cnc3ccc(-c4ccc5oc(N)nc5c4)cn23)CCO1 [US11547697, Compound 513]	–	> 10	> 10
Cc1ccn(C2CCN(C(=O)c3cnc4ccc(-c5ccc6oc(N)nc6c5)cn34)CC2)n1 [US11547697, Compound 297]	–	> 10	> 10
Nc1nc2cc(-c3ccc4ncc(C(=O)N5CC5)n4c3)ccc2o1 [US11547697, Compound 340]	–	> 10	> 10
CC(C)(N)C(=O)N1CCN(c2cnc3ccc(-c4ccc5oc(N)nc5c4)cc3n2)CC1 [US11547697, Compound 213]	> 10	–	–
Nc1nc2cc(-c3ccc4ncn(CCCN5CCCC5)c(=O)c4c3)ccc2o1 [US11547697, Compound 271]	> 10	–	–
Nc1nc2cc(-c3ccc4ncc(N5CCC(n6cccn6)CC5)nc4c3)ccc2o1 [US11547697, Compound 337]	–	> 10	> 10
Nc1nc2cc(-c3ccc4ncc(-c5cccnc5)nc4c3)ccc2o1 [US11547697, Compound 76]	–	> 10	> 10
CCN1CCN(C(=O)c2cnc3ccc(-c4ccc5oc(N)nc5c4)cn23)CC1 [US11547697, Compound 141]	–	> 10	> 10
Cc1c(-c2ccc3oc(N)nc3c2)ccc2ncc(N3CCN[C@@H](C)C3)nc12 [US11547697, Compound 374]	> 10	–	–
Nc1nc2cc(-c3ccc4ncc(N5CCS(=O)(=O)CC5)nc4c3)ccc2o1 [US11547697, Compound 98]	–	> 10	> 10
Nc1nc2cc(-c3ccc4ncc(C(=O)N5CCS(=O)(=O)CC5)n4c3)ccc2o1 [US11547697, Compound 107]	–	> 10	> 10
CN1CCC(N(C)C(=O)c2cnc3ccc(-c4ccc5oc(N)nc5c4)cn23)CC1 [US11547697, Compound 165]	> 10	–	–
Nc1nc2cc(-c3ccc4ncc(C(=O)N5CCC6(C5)OCCO6)n4c3)ccc2o1 [US11547697, Compound 499]	–	> 10	> 10
Cc1cn(-c2cnc3ccc(-c4ccc5oc(N)nc5c4)cc3n2)cn1 [US11547697, Compound 177]	–	> 10	> 10
Cc1cc(-c2ccc3oc(N)nc3c2)cn2c(C(=O)N3CCOCC3)cnc12 [US11547697, Compound 448]	–	> 10	> 10
Cc1c(-c2ccc3oc(N)nc3c2)ccc2ncc(N3CC(N4CCNCC4)C3)nc12 [US11547697, Compound 386]	–	> 10	> 10
Nc1nc2cc(-c3ccc4ncc(C(=O)N5CCC(O)CC5)n4c3)ccc2o1 [US11547697, Compound 162]	–	> 10	> 10
Nc1noc2ccc(-c3ccc4nccc(-c5ccncc5)c4c3)cc12 [US11547697, Compound 18]	–	> 10	> 10
O=C(c1cnc2ccc(-c3cccc(NS(=O)(=O)c4ccccc4)c3)cn12)N1CCOCC1 [US11547697, Compound 453]	–	> 10	> 10
Nc1nc2cc(-c3ccc4ncc(C(=O)N5CC(F)(F)C5)n4c3)ccc2o1 [US11547697, Compound 473]	–	> 10	> 10
CC(=O)Nc1nc2ccc(-c3ccc4nccc(-c5ccncc5)c4c3)cc2s1 [US11547697, Compound 2]	–	> 10	> 10
Nc1nc2cc(-c3c[nH]c4nccc(-c5ccncc5)c34)ccc2o1 [US11547697, Compound 25]	–	> 10	> 10
Cc1ccn(C2CCN(c3cnc4ccc(-c5ccc6oc(N)nc6c5)cc4n3)CC2)n1 [US11547697, Compound 223]	–	> 10	> 10
C[C@@H]1CN(C(=O)c2cnc3ccc(-c4ccc5oc(N)nc5c4)cn23)C[C@H](C)O1 [US11547697, Compound 106]	–	> 10	> 10
NC(=O)[C@@H]1CCCN1C(=O)c1cnc2ccc(-c3ccc4oc(N)nc4c3)cn12 [US11547697, Compound 259]	–	> 10	> 10
CC(=O)N1CCN(C(=O)c2cnc3ccc(-c4ccc5oc(N)nc5c4)cn23)CC1 [US11547697, Compound 113]	–	> 10	> 10
Nc1nc2cc(-c3ccc4ncc(N5CC(N6CCOCC6)C5)nc4c3)ccc2o1 [US11547697, Compound 273]	–	> 10	> 10
